According to article doi:10.1101/2024.08.22.609123v2 (biorxiv, 2024):

How the values were obtained:
[1] = target: T1, GPX4 (Homo sapiens, UniProt P36969); experiment: coupled glutathione reductase / NADPH assay, […] nm; type: biochemical
T1 sequence (P36969 28-197): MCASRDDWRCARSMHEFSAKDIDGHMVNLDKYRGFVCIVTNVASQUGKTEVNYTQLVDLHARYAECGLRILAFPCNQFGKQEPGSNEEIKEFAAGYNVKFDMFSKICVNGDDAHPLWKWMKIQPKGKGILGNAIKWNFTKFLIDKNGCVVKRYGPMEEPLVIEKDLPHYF

[2] = target: T2, GPX4 (residues 28-197) (Homo sapiens, UniProt P36969); experiment: SPR; type: binding
T2 sequence (P36969 28-197): T1 sequence (P36969 28-197)

Row | IC50 [1] | Kd [2] | Compound
1 | 4.17 µM | 1.83 µM | Cc1ccc(C(=O)O)cc1-c1ccc(/C=C2\SC(=O)N(Cc3ccc(F)cc3)C2=O)o1 [DP021]
2 | > 100 µM | – | COC(=O)c1ccc(C)c(-c2ccc(/C=C3\SC(=O)N(Cc4ccc(F)cc4)C3=O)o2)c1 [DP037]
